Data as given in US9440913B2, “Dihydroxybenzene derivatives and antiprotozoal agent comprising same as active ingredient” (NAI INC., priority 2010, dated 2016).
pIC50: −log10 of the molar value.

How the values were obtained:
[1] = molecular target: Cryptosporidium cyanide insensitive oxidase (AOX), recombinant protein (cCpAOX) (Cryptosporidium parvum, UniProt Q761U6); experiment: CpAOX enzyme inhibition; format: biochemical
Excerpt: Cryptosporidium has found to have cyanide insensitive oxidase (AOX), and its inhibitory activity was observed using its recombinant protein (cCpAOX) produced in E. coli.

[2] = molecular target: T1, recombinant Trypanosome AOX (TAO) enzyme (Trypanosoma brucei brucei, UniProt Q26710); experiment: TAO enzyme inhibition (quinol oxidase activity, ubiquinol-1 substrate); format: biochemical, T. brucei brucei; settings: TAO-expressing E. coli membrane fraction, 25° C., ubiquinol-1, absorbance at 278 nm
T1 construct: made in house; host or cells: Escherichia coli (membrane fraction)
Experimental: Escherichia coli membrane fractions that express TAO by a plasmid harboring TAO cDNA cloned from T. brucei brucei (Fukai, Comparative Biochemistry & Physiology, 124, 141-148, 1999) were used as a recombinant Trypanosome AOX (TAO) enzyme. 50 mM Tris-HCl (pH 7.5), TAO-expressing membrane fraction (0.35 ng), and […] of an inhibitor were mixed in a 1 mL cuvette, and the mixture was incubated at 25° C. for 4 minutes. Ubiquinol-1 as a substrate was then added to the mixture to initiated the reaction, and change in absorbance at 278 nm was monitored (Shimadzu UV-3000, molar absorption coefficient ε=15 cm^−1 mM^−1).

T. b. rhodesiense IL1501 = experiment: Antiprotozoal effect, MIC measurement in HMI-9 culture; format: cell-based; settings: Trypanosoma brucei, RHODESIENSE, 24 h, bloodstream forms, 18 + 6 hours culture
Experimental: T. b. rhodesiense IL1501, the human infectious protozoan that causes acute symptoms, was used as a Trypanosomatid protozoan. The bloodstream forms of protozoan can be cultured in a HMI-9 culture medium (Hirumi, 1989). The protozoan was always cultured at a temperature of 37° C. in the presence of 5% CO2.
In a microtiter plate (96-well, FALCON 3072), HMI-9 culture medium and HMI-9 culture medium plus glycerol added to make a final concentration of 8.33 mM are separately prepared. 89 μL of the preparation are put into only the first well, and a 60 μL aliquot of each the other wells. 1 μL of a solution of AF or a AF derivative dissolved in DMSO was added to the first well, and was then suspended. A 30 μL aliquot of the suspension was then collected, was transferred to the second well, and was suspended. These operations were repeated in this order to prepare a three-fold dilution series of drug. A 40 μL aliquot of a protozoan culture was added to each well to make a final concentration of 5×10^4 cells/well (a final concentration of glycerol of 5 mM) followed by 18-hours culturing under conditions of 37° C. and 5% CO2. (For EC50 measurement, a 10 μL aliquot of Alamar Blue was added to each well), culturing was carried out under the same conditions for 6 more hours, surviving protozoans were visually observed with a microscope. The concentration at which no motile surviving protozoan was observed was defined as MIC.

[3] = Glycerol (+), final concentration of glycerol of 5 mM

Cryptosporidium cyanide insensitive oxidase (AOX), recombinant protein (cCpAOX), sequence (Q761U6 entry or part of it): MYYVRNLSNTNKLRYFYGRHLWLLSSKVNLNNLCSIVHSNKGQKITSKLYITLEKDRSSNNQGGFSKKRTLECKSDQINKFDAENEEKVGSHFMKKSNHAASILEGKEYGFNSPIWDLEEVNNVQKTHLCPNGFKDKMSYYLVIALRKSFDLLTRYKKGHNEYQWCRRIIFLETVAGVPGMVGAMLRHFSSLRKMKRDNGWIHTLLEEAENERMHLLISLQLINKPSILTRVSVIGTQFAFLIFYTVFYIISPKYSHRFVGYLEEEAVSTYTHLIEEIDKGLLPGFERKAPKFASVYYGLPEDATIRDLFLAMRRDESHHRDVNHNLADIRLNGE
T1 sequence (Q26710 whole entry): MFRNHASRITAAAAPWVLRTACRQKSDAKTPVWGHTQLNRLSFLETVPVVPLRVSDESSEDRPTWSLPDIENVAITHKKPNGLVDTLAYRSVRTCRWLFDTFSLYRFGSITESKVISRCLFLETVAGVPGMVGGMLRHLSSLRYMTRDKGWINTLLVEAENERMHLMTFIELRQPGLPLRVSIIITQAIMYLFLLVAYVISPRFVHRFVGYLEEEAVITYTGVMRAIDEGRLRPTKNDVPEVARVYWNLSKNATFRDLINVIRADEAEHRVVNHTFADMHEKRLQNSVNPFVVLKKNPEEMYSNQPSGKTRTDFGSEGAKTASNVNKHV

SMILES | melting point [°C] | pIC50 [1] | pIC50 [2] | MIC (T. b. rhodesiense IL1501; [3]) [nM] | MIC (T. b. rhodesiense IL1501; Glycerol (−)) [nM]
Cc1c(Cl)c(O)c(/C=C/CCCCCCCOC(=O)C(C)(C)C)c(O)c1C=O [Compound 200-13-OPiv, (E)-9-(3-Chloro-5-formyl-2,6-dihydroxy-4-methylphenyl)-8-nonenyl pivalate] | 69 to 70 | 8.66 | 9.49 | – | –
Cc1c(Cl)c(O)c(C/C=C/CCCCCOC(=O)C(C)(C)C)c(O)c1C=O [Compound 206-12-OPiv, (E)-8-(3-Chloro-5-formyl-2,6-dihydroxy-4-methylphenyl)-6-octenyl pivalate] | – | 8.68 | 9.57 | 0.006 | 0.024
Cc1c(Cl)c(O)c(CCCCCCCCCC(=O)O)c(O)c1C=O [Compound 215-11-COOH, 10-(3-Chloro-5-formyl-2,6-dihydroxy-4-methylphenyl)decanoic acid] | 154 to 156 | 8.68 | 8.82 | 1500 | 4000
CC(=O)OCCCCCCCCc1c(O)c(Cl)c(C)c(C=O)c1O [Compound 215-11-OAc, 8-(3-Chloro-5-formyl-2,6-dihydroxy-4-methylphenyl)octyl acetate] | 68 | 8.57 | 9.22 | 7.7 | 68
Cc1c(Cl)c(O)c(CCCCCCCOC(=O)C(C)(C)C)c(O)c1C=O [Compound 215-11-OPiv, 7-(3-Chloro-5-formyl-2,6-dihydroxy-4-methylphenyl)heptyl pivalate] | 63 to 64 | 8.85 | 9.60 | 0.094 | 0.88
COC(=O)CCCCCCCCCc1c(O)c(Cl)c(C)c(C=O)c1O [Compound 215-12-COOMe, Methyl 10-(3-chloro-5-formyl-2,6-dihydroxy-4-methylphenyl)decanoate] | 87 to 88 | 8.82 | 9.60 | 5.7 | 38
CCC(=O)OCCCCCCCCc1c(O)c(Cl)c(C)c(C=O)c1O [Compound 215-12-OCOEt, 8-(3-Chloro-5-formyl-2,6-dihydroxy-4-methylphenyl)octyl propionate] | 63 to 64 | 8.66 | 9.54 | – | –
Cc1c(Cl)c(O)c(CCCCCCCCOC(=O)C(C)(C)C)c(O)c1C=O [Compound 215-12-OPiv, 8-(3-Chloro-5-formyl-2,6-dihydroxy-4-methylphenyl)octyl pivalate] | 70 to 71 | 8.57 | 9.49 | 0.49 | 1.9
Cc1c(Cl)c(O)c(CCCCCCCCCC(=O)OC(C)(C)C)c(O)c1C=O [Compound 215-13-COOBu, tert-Butyl 10-(3-chloro-2,6-dihydroxy-5-formyl-4-methylphenyl)decanoate] | – | 9.04 | 9.60 | 1.2 | 16
Cc1c(Cl)c(O)c(CCCCCCCCCC(=O)OC(C)C)c(O)c1C=O [Compound 215-13-COOiPr, Isopropyl 10-(3-chloro-2,6-dihydroxy-5-formyl-4-methylphenyl)decanoate] | 49 | 8.66 | 9.37 | 0.061 | 1.7
CCC(=O)OCCCCCCCCCc1c(O)c(Cl)c(C)c(C=O)c1O [Compound 215-13-OCOEt, 9-(3-Chloro-5-formyl-2,6-dihydroxy-4-methylphenyl)nonyl propionate] | 69 to 70 | 8.68 | 9.70 | 7.1 | 125
CCOC(=O)CCCCCCCCCCCc1c(O)c(Cl)c(C)c(C=O)c1O [Compound 215-15-COOEt, Ethyl 12-(3-chloro-5-formyl-2,6-dihydroxy-4-methylphenyl)dodecanoate] | – | 8.74 | 9.52 | – | –
Cc1c(Cl)c(O)c(CCCCCCCCCCCC(=O)OC(C)C)c(O)c1C=O [Compound 215-15-COOiPr, Isopropyl 12-(3-chloro-5-formyl-2,6-dihydroxy-4-methylphenyl)dodecanoate] | 82 to 83 | 8.60 | 9.49 | – | –
Cc1c(Cl)c(O)c(CCCCCCCC(=O)Oc2c3ccccc3cc3ccccc23)c(O)c1C=O [Compound 215-18-Anthra, 9-Anthryl 8-(3-chloro-5-formyl-2,6-dihydroxy-4-methylphenyl)octanate] | – | 8.59 | 9.30 | 3.8 | 6.6
CCCCC/C(C)=C\Cc1c(O)c(Cl)c(C)c(C=O)c1O [Compound 264-8-z, (Z)-3-Chloro-4,6-dihydroxy-2-methyl-5-(3-methyl-2-octenyl)benzaldehyde] | 157 to 158 | 8.85 | 9.74 | 0.17 | 0.25
Cc1c(Cl)c(O)c(CCC(C)CCCCOC(=O)C(C)(C)C)c(O)c1C=O (centres unmarked) [Compound 265-11-OPiv, 7-(3-Chloro-2,6-dihydroxy-5-formyl-4-methylphenyl)-5-methylheptyl pivalate] | – | 8.64 | 9.44 | – | –
COC(CC(=O)C(C)(C)C)/C(C)=C/CC/C(C)=C/Cc1c(O)c(Cl)c(C)c(C=O)c1O (centres unmarked) [Compound 271-12] | – | 8.80 | 9.66 | 0.0023 | 0.056
CC(/C=C/C(=O)C(C)(C)C)=C\CC/C(C)=C/Cc1c(O)c(Cl)c(C)c(C=O)c1O [Compound 273-12, 3-Chloro-4,6-dihydroxy-2-methyl-5-[(2E,6E,8E)-3,7,11,11-tetramethyl-10-oxo-2,6,8-dodecatrienyl]benzaldehyde] | – | 8.66 | 9.64 | 1.9 | 3.7
COC(=O)/C(C)=C/CC/C(C)=C/Cc1c(O)c(Cl)c(C)c(C=O)c1O [Compound 275-10-COOMe, Methyl (2E,6E)-8-(3-Chloro-5-formyl-2,6-dihydroxy-4-methyl)phenyl-2,6-dimethyl-2,6-octadienate] | – | 8.92 | 9.42 | 1.1 | 8.7
CC(=O)/C(C)=C/CC/C(C)=C/Cc1c(O)c(Cl)c(C)c(C=O)c1O [Compound 276-9] | 119 to 120 | 8.68 | 8.92 | 0.53 | 13
CC(C)=CCC/C=C/Cc1c(O)c(Cl)c(C)c(C=O)c1O [Compound 278-8, (E)-3-Chloro-4,6-dihydroxy-2-methyl-5-(7-methyl-2,6-octadienyl)benzaldehyde] | – | 8.92 | 9.60 | 7.4 | 14
Cc1c(Cl)c(O)c(CCCCCCC(C)C)c(O)c1C=O [Compound 279-8, 3-Chloro-4,6-dihydroxy-2-methyl-5-(7-methyloctyl)benzaldehyde] | 93 to 94 | 8.68 | 9.66 | 7.3 | 12
CCCCCC#CCc1c(O)c(Cl)c(C)c(C=O)c1O [Compound 284-8, 3-Chloro-4,6-dihydroxy-5-(2-octynyl)-2-methylbenzaldehyde] | 135 to 136 | 8.72 | 9.52 | 9.6 | 92
Cc1c(Cl)c(O)c(CCCCCCCCCC(=O)OCC2COC(C)(C)O2)c(O)c1C=O (centres unmarked) [Compound 502-16-G, 2,2-Dimethyl-1,3-dioxolanee-4-methyl 10-(3-chloro-5-formyl-2,6-dihydroxy-4-methylphenyl)decanoate] | 55 to 56 | 8.64 | 9.52 | 1.2 | 12
